Test results published in patent US8710233B2 (Gruenenthal GmbH, priority 2005, dated 2014).
Like-named read-outs stand apart in the source and are kept apart here.

Columns and labels:
Assay type in all cases: cell-based
[1] = molecular target: T1, vanilloid receptor 1 (VR1/TRPV1) of the rat species (Rattus norvegicus, UniProt O35433); experiment: FLIPR Ca2+ influx assay on rat dorsal root ganglia cells (pharmacological method I)
T1 construct: The spinal column is removed from decapitated rats; from tissue; host or cells: primary cells dissociated from rat dorsal root ganglia
Source text: I. Functional Investigation of the Vanilloid Receptor 1 (VR1/TRPV1 Receptor)
The agonistic or antagonistic action of the substances to be investigated on the vanilloid receptor 1 (VR1/TRPV1) of the rat species may be determined by the following assay. According to this assay, the influx of Ca^2+ through the receptor channel is quantified with the assistance of a Ca^2+-sensitive dye (type Fluo-4, Molecular Probes Europe BV, Leiden, Netherlands) in a Fluorescent Imaging Plate Reader (FLIPR, Molecular Devices, Sunnyvale, USA).
The spinal column is removed from decapitated rats and is placed directly in cold, i.e. located in an ice bath, HBSS buffer (Hank's buffered saline solution, Gibco Invitrogen GmbH, Karlsruhe, Germany) combined with 1 vol. % (percent by volume) of an AA solution (antibiotic/antimycotic solution, PAA, Pasching, Austria). The spinal column is cut open longitudinally and removed together with fasciae from the spinal canal. The dorsal root ganglia (DRGs) are then removed and in turn stored in cold HBSS buffer combined with 1 vol. % of an AA solution. The DRGs, from which all traces of blood and spinal nerves have been removed, are in each case transferred into 500 μL of cold collagenase type 2 (PAA, Pasching, Austria) and incubated for 35 minutes at 37° C. […] Once incubation is complete, the enzyme solution is carefully removed by pipette and the DRGs, which are left behind, are in each case combined with 500 μL of complete medium.
The DRGs are in each case repeatedly suspended, drawn by means of a syringe through […], no. 12 and no. 16 cannulas and transferred into 50 mL Falcon microtubes and each tube is made up to 15 mL with complete medium. The contents of each Falcon microtube are in each case filtered through a 70 μm Falcon filter insert and centrifuged for 10 minutes at 1200 revolutions and room temperature. The resultant pellet is in each case resuspended in 250 μL of complete medium and the cell count determined.
The number of cells in the suspension is adjusted to 3×10^5 per mL and a 150 μL portion of this suspension is in each case placed in a well of the cell culture plate which has been coated as described above.
The cells are then loaded with 2 μM Fluo-4 and 0.01 vol. % Pluronic F127 (Molecular Probes Europe BV, Leiden, Netherlands) in HBSS buffer (Hank's buffered saline solution, Gibco Invitrogen GmbH, Karlsruhe, Germany) for 30 min at 37° C., washed 3× with HBSS buffer and, after a further 15 minutes' incubation at room temperature, used for Ca^2+ measurement in the FLIPR assay. […] Quantification proceeds by measuring the highest fluorescence intensity (FC, fluorescence counts) over time.
The FLIPR protocol comprises 2 additions of substance. The compounds to be tested (10 μM) are firstly pipetted onto the cells and Ca^2+ influx is compared with the control (capsaicin 10 μM). This provides the percentage activation relative to the Ca^2+ signal after addition of 10 μM of capsaicin (CP). After 5 minutes' incubation, 100 nM of capsaicin are added and the influx of Ca^2+ is again determined.
Desensitising agonists and antagonists result in suppression of Ca^2+ influx. The percentage inhibition in comparison with the maximum achievable inhibition with 10 μM capsaicin is calculated.
Triplicate determinations (n═3) are performed and these are repeated in at least 3 independent experiments […].

VR1/TRPV1 receptor = VR1/TRPV1 receptor (Homo sapiens, UniProt Q8NER1); experiment: IC50 (human) after pH stimulus; settings: for IC50: table 4; for inhibition in percent, IC50 (human) after pH stimulus / inhibition at 1 µM: @ 1 μM, ne = no effect
vanilloid receptor (VR1) = molecular target: T2, vanilloid receptor (VR1) (Homo sapiens, UniProt Q8NER1); experiment: FLIPR Ca2+ influx assay on CHO K1 cells transfected with the VR1 gene (pharmacological method II); settings: table 4; capsaicin; read-out: Ki (human) Cap.
T2 construct: expressed in transfected cells; host or cells: CHO K1 cells (ECACC), stably transfected

[2] = table 4, capsaicin, read-out: Ki (rat) Cap.
[3] = read-out: inhibition in percent, IC50 (human) after pH stimulus

T1 sequence (O35433 whole entry): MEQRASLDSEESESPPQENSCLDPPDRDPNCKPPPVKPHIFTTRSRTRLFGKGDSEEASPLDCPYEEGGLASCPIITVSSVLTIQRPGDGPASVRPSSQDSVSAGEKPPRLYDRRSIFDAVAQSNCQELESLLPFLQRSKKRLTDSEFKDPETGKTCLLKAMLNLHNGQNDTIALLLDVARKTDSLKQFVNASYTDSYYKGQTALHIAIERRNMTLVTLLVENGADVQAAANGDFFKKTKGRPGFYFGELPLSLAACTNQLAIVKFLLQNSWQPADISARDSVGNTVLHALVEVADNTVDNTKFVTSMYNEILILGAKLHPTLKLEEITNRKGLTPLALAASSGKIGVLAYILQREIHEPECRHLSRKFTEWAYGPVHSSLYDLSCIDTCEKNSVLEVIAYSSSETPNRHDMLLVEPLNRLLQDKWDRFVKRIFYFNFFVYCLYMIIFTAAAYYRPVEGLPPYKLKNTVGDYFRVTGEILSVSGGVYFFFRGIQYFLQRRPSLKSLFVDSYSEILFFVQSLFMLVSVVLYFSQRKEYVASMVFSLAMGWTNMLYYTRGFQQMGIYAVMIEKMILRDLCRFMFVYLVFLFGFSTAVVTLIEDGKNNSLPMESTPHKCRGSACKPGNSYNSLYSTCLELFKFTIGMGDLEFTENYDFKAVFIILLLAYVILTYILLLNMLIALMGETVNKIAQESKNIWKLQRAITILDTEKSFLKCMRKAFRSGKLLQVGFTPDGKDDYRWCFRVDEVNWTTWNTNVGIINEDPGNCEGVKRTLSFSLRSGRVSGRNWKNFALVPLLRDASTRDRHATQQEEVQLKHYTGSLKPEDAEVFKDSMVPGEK
T2 sequence (Q8NER1 whole entry): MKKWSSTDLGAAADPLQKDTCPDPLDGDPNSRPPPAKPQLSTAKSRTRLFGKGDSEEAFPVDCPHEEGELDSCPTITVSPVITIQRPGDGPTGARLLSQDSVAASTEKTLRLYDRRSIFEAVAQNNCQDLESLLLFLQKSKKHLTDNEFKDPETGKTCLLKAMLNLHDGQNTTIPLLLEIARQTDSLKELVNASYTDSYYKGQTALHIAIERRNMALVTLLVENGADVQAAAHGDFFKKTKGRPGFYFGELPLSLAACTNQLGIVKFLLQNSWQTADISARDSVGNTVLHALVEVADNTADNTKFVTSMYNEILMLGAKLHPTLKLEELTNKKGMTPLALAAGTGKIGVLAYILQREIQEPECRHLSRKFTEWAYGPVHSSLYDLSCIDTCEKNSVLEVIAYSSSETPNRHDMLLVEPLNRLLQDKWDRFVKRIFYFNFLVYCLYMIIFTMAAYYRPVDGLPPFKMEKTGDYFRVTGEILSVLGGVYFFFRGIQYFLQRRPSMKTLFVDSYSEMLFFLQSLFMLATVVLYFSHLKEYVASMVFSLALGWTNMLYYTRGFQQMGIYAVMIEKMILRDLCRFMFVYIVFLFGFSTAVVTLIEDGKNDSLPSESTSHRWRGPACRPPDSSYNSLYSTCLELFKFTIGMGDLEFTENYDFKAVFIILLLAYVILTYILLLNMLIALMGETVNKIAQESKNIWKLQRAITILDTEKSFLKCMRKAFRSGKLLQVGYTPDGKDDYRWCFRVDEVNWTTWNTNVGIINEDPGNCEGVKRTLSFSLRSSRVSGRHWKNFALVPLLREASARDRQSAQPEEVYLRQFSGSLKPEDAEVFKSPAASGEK
Sequence of VR1/TRPV1 receptor (Q8NER1 whole entry): as above

IC50 (VR1/TRPV1 receptor) | Ki (vanilloid receptor (VR1)) | Compound | further results
66 nM | 0.7 nM | CC(C(=O)NCc1ccc(C(F)(F)F)nc1/C=C/C1CCCCC1)c1ccc(NS(C)(=O)=O)c(F)c1 (stereo not shown) [Example 346, N-[2-(2-cyclohexyl-vinyl)-6-trifluoromethyl-pyridin-3-ylmethyl]-2-(3-fluoro-4-methylsulfonamido-phenyl)-propionamide] | 
 | 5.8 nM | COc1cc(OC)cc(-c2cc(C(F)(F)F)ccc2CNC(=O)C(C)c2ccc(NS(C)(=O)=O)c(F)c2)c1 (stereo not shown) [Example 350, N-(3′,5′-dimethoxy-5-trifluoromethyl-biphenyl-2-ylmethyl)-2-(3-fluoro-4-methylsulfonamido-phenyl)-propionamide] | inhibition at 0.1 µM (VR1/TRPV1 receptor; [3]): 4%; inhibition at 1 µM (VR1/TRPV1 receptor; [3]): 52%
 | 0.5 nM | CCCCC(CCCC)Oc1nc(C(F)(F)F)ccc1CNC(=O)C(C)c1ccc(NS(C)(=O)=O)c(F)c1 (stereo not shown) [Example 352, N-[2-(1-butyl-pentyloxy)-6-trifluoromethyl-pyridin-3-ylmethyl]-2-(3-fluoro-4-methylsulfonamido-phenyl)-propionamide] | inhibition at 5 µM (VR1/TRPV1 receptor; @ 5 μM, read-out: inhibition in percent, IC50 (human) after pH stimulus): 34%; inhibition at 10 µM (VR1/TRPV1 receptor; @ 10 μM, read-out: inhibition in percent, IC50 (human) after pH stimulus): 61%
85 nM | 0.8 nM | CC(C(=O)NCc1ccc(C(F)(F)F)nc1C#Cc1ccccc1)c1ccc(NS(C)(=O)=O)c(F)c1 (stereo not shown) [Example 354, 2-(3-fluoro-4-methylsulfonamido-phenyl)-N-(2-phenylethynyl-6-trifluoromethyl-pyridin-3-ylmethyl)-propionamide] | 
 | 9.2 nM | Cc1cc(C(F)(F)F)nc(N2CCC(Cc3ccccc3)CC2)c1CNC(=O)C(C)c1ccc(NS(C)(=O)=O)c(F)c1 (stereo not shown) [Example 356, N-(4-benzyl-4′-methyl-6′-trifluoromethyl-3,4,5,6-tetrahydro-2H-[1,2′]bipyridinyl-3′-ylmethyl)-2-(3-fluoro-4-methylsulfonamido-phenyl)-propionamide] | inhibition in percent, IC50 (human) after pH stimulus (VR1/TRPV1 receptor): ne @ 1 μM
462 nM | 9.7 nM | CCOCCCOc1nc(C(F)(F)F)ccc1CNC(=O)C(C)c1ccc(NS(C)(=O)=O)c(F)c1 (stereo not shown) [Example 361, N-[2-(3-ethoxy-propoxy)-6-trifluoromethyl-pyridin-3-ylmethyl]-2-(3-fluoro-4-methylsulfonamido-phenyl)-propionamide] | 
161 nM | 1.5 nM | CC(C(=O)NCc1ccc(C(F)(F)F)nc1OCCOc1ccccc1)c1ccc(NS(C)(=O)=O)c(F)c1 (stereo not shown) [Example 362, 2-(3-fluoro-4-methylsulfonamido-phenyl)-N-[2-(2-phenoxy-ethoxy)-6-trifluoromethyl-pyridin-3-ylmethyl]-propionamide] | 
76 nM | 0.7 nM | COc1cc(COc2nc(C(F)(F)F)ccc2CNC(=O)C(C)c2ccc(NS(C)(=O)=O)c(F)c2)cc(OC)c1 (stereo not shown) [Example 363, N-[2-(3,5-dimethoxy-benzyloxy)-6-trifluoromethyl-pyridin-3-ylmethyl]-2-(3-fluoro-4-methylsulfonamido-phenyl)-propionamide] | 
 | 14.3 nM | COc1nc(C(C)(C)C)ccc1CNC(=O)C(C)c1ccc(NS(C)(=O)=O)c(F)c1 (stereo not shown) [Example 372, N-((6-tert-butyl-2-methoxypyridin-3-yl)methyl)-2-(3-fluoro-4-(methylsulfonamido)phenyl)propanamide] | inhibition at 1 µM (VR1/TRPV1 receptor; [3]): 52%

The remaining lines, values behind:

Compound | IC50 (VR1/TRPV1 receptor) | Ki (vanilloid receptor (VR1)) | further results
CCCCOc1nc(C(F)(F)F)ccc1CNC(=O)C(C)c1ccc(NS(C)(=O)=O)c(F)c1 (stereo not shown) [Example 19, N-((2-butoxy-6-(trifluoromethyl)pyridin-3-yl)methyl)-2-(3-fluoro-4-(methylsulfonamido)phenyl)propanamide] |  |  | Ki ([1]; Table 2, displacement of capsaicin (100 nM), Cheng-Prusoff, read-out: Ki (rat)): 1 nM
CC1CCN(c2nc(-c3ccc(F)cc3)ccc2CNC(=O)C(C)c2ccc(NS(C)(=O)=O)c(F)c2)CC1 (stereo not shown) [Example 184, 2-(3-fluoro-4-methylsulfonamido-phenyl)-N-[6′-(4-fluoro-phenyl)-4-methyl-3,4,5,6-tetrahydro-2H-[1,2′]bipyridinyl-3′-ylmethyl]-propionamide] |  |  | Ki [1, 2]: 77 nM
CC1CC(C)CN(c2nc(C(F)(F)Cl)ccc2CNC(=O)C(C)c2ccc(NS(C)(=O)=O)c(F)c2)C1 (stereo not shown) [Example 187, N-[6′-(chloro-difluoro-methyl)-3,5-dimethyl-3,4,5,6-tetrahydro-2H-[1,2′]bipyridinyl-3′-ylmethyl]-2-(3-fluoro-4-methylsulfonamido-phenyl)-propionamide] | 39.6 nM |  | Ki [1, 2]: 0.5 nM
Cc1cc(C(F)(F)F)nc(OC2CCCC2)c1CNC(=O)C(C)c1ccc(NS(C)(=O)=O)c(F)c1 (stereo not shown) [Example 349] |  | 44 nM | inhibition in percent, IC50 (human) after pH stimulus (VR1/TRPV1 receptor): ne @ 1 μM
CC(C)COc1nc(C(C)(C)C)ccc1CNC(=O)C(C)c1ccc(NS(C)(=O)=O)c(F)c1 (stereo not shown) [Example 353, N-(6-tert-butyl-2-isobutoxy-pyridin-3-ylmethyl)-2-(3-fluoro-4-methylsulfonamido-phenyl)-propionamide] |  | 0.6 nM | inhibition at 0.1 µM (VR1/TRPV1 receptor; [3]): 28%; inhibition at 1 µM (VR1/TRPV1 receptor; [3]): 25%
COCCCOc1nc(C(F)(F)F)ccc1CNC(=O)C(C)c1ccc(NS(C)(=O)=O)c(F)c1 (stereo not shown) [Example 355, 2-(3-fluoro-4-methylsulfonamido-phenyl)-N-[2-(3-methoxy-propoxy)-6-trifluoromethyl-pyridin-3-ylmethyl]-propionamide] | 2200 nM | 15.3 nM | 
CCCOc1nc(C(C)(C)C)ccc1CNC(=O)C(C)c1ccc(NS(C)(=O)=O)c(F)c1 (stereo not shown) [Example 369, N-((6-tert-butyl-2-propoxypyridin-3-yl)methyl)-2-(3-fluoro-4-(methylsulfonamido)phenyl)propanamide] | 182 nM | 1.7 nM | 
COCCCOc1nc(C(C)(C)C)ccc1CNC(=O)C(C)c1ccc(NS(C)(=O)=O)c(F)c1 (stereo not shown) [Example 370, N-((6-tert-butyl-2-(3-methoxypropoxy)pyridin-3-yl)methyl)-2-(3-fluoro-4-(methylsulfonamido)phenyl)propanamide] | 250 nM | 5.6 nM | 
CCOc1nc(C(C)(C)C)ccc1CNC(=O)C(C)c1ccc(NS(C)(=O)=O)c(F)c1 (stereo not shown) [Example 373, N-((6-tert-butyl-2-ethoxypyridin-3-yl)methyl)-2-(3-fluoro-4-(methylsulfonamido)phenyl)propanamide] | 492 nM | 14.8 nM | 
CC(C)Oc1nc(C(C)(C)C)ccc1CNC(=O)C(C)c1ccc(NS(C)(=O)=O)c(F)c1 (stereo not shown) [Example 374, N-((6-tert-butyl-2-isopropoxypyridin-3-yl)methyl)-2-(3-fluoro-4-(methylsulfonamido)phenyl)propanamide] | 314 nM | 2.3 nM | 
CCCCCCOc1nc(C(F)(F)F)ccc1CNC(=O)C(C)c1ccc(NS(C)(=O)=O)c(F)c1 (stereo not shown) [Example 376, 2-(3-fluoro-4-(methylsulfonamido)phenyl)-N-((2-(hexyloxy)-6-(trifluoromethyl)pyridin-3-yl)methyl)propanamide] | 20 nM | 0.8 nM | 
CCOCCOc1nc(C(C)(C)C)ccc1CNC(=O)C(C)c1ccc(NS(C)(=O)=O)c(F)c1 (stereo not shown) [Example 378, N-((6-tert-butyl-2-(2-ethoxyethoxy)pyridin-3-yl)methyl)-2-(3-fluoro-4-(methylsulfonamido)phenyl)propanamide] | 325 nM | 23.9 nM | 
